Legend:
[1] = system: all tissues in the InterOrgan platform (heart, liver, bone, skin); experiment: Doxorubicin-induced toxicity: cell viability, glucose consumption, mitochondrial activity of engineered tissues; format: cell-based, human; details: 30 μM Dox, 72 hours
Procedure: Metabolic Assays: Glucose, lactate, glutamate and glutamine were measured in parallel using the bioluminescent Glucose-Glo™ (Promega, cat. no. J6021), Lactate-Glo™ (Promega, cat. No. J5021), Glutamine/Glutamate-Glo™ (Promega, cat. no. J8021) and Glutamate-Glo™ (Promega, cat. no. J7021) assays according to the manufacturer's protocols.

engineered skin tissues = experiment: Doxorubicin-induced toxicity: skin functional assays; format: cell-based, human; details: 30 μM Dox, both Isolated and InterOrgan cultures
Procedure: Skin functional assays: For drug-induced toxicity studies, electrical current was run through the tissues by placing electrodes on either side of the skin tissue and the change in resistance was subsequently measured and read as a function of the barrier. All tissues were analyzed using the same electrode holder setup to standardize the positions of electrodes with respect to the tissue. To analyze the transport of molecules through the skin barrier, Fluorescein (FITC, ThermoFisher, D3306) powder was added to the epidermis of skin tissues. After 3 hrs, 100 μl of supernatant from the dermal region below the skin tissue was sampled and assayed on a plate reader (BioTex SynergyHTX).

miRNAs in heart tissues = format: cell-based, human
Text: We used the GeneChip™ miRNA 4.0 Array (ThermoFisher) to measure differential expression of miRNAs in heart tissues following Dox treatment.
Differential expressions of all other miRNAs were highly significant in the InterOrgan platform, based on Normalized Enrichment Scores (NES), showing activity consistent with published clinical results for 20 out of the 22 miRNAs (FIGS. 14A-14F).
miRNA was isolated using miRNeasy Mini Kit from (Qiagen, 217004). Samples were shipped on dry ice to Advanced BioMedical Laboratories and assayed using the miRNA 4.0 Genechip Array (ThermoFisher). Results were analyzed using the TAC 4.0 software (ThermoFisher). Additional Ingenuity Pathway Analysis was performed using the methodology described above.
To assess the activity of miRNAs, gene set enrichment analysis (GSEA) was performed of their targets, as determined by MultiMiR (release 3.11) and RBio-mirGS (update 0.2.12) biocoductor packages (in R) for genes that were differentially expressed after Dox treatment. Since miRNAs generally repress their targets, the sign of the normalized enrichment score was reversed to correctly report their change in activity. For instance, a positive target enrichment for miR-1273a's targets was reported as a negative NES (NES=−21.31) because it is consistent with its downregulation. […]

[2] = system: human engineered cardiac tissue; experiment: Validation of engineered cardiac tissue by drugs with known cardiac effects (beat frequency); format: cell-based; details: doxorubicin 1 μM over 72 hours
Procedure: The cardiac tissue model was generated from iPS-derived cardiomyocytes and fibroblasts encapsulated in fibrin hydrogel, as in our previous studies. The tissue was formed between two elastic pillars causing cell elongation and alignment, and subjected to electrical stimulation to synchronously contract and work against the pillars.
Specifically, linsitinib was dissolved at a 10 mM concentration in DMSO (Corning) and mixed in with the respective cell medium at a […] concentration unless otherwise noted. Vehicle treatments involved just the addition of DMSO at identical volumes as a control. Tissues were randomly assigned to experimental groups. Medium was changed every day.
To measure the cardiac contractility online, we took contractility videos of the tissues that were analyzed using the native MATLAB code we previously developed. Tissue contractility was measured by tracking the change in tissue area as a function of time. […] Absolute differences in cell area from the baseline frame were then calculated to create a time course of cell area changes over time. The resulting time courses were analyzed using a native MATLAB (MATHWorks) automated peak finding algorithm to determine locations of maximum cell contractions in the time profiles. […] The rate of proarrhythmic events was calculated by the ratio of the number of proarrhythmic events over the total number of beats.

cardiac muscle = experiment: Cardiac beat frequency after drug injection into the reservoir of the InterOrgan platform; format: cell-based, human; details: 10 μM into reservoir at t=0; assessed at 24 and 72 hours
endothelial barrier = experiment: Endothelial barrier permeability under flow shear (ECs and supporting MSCs on mesh inserts); format: cell-based, human
[3] = FITC absorption and diffusive transport in the integrated platform; format: physicochemical
Procedure: Fluorescein isothiocyanate (FITC, 10 mM in DMSO; Sigma Aldrich) was circulated for the integrated platform to determine potential hydrophobic small molecule absorption, given its physical and chemical properties. FITC was added at a concentration of 10 µM to 8 mL of 1:1 bone tumor/cardiac mixed media and introduced into the platform. The control was the FITC-containing media in a standard 24-multiwell plate (Corning). Aliquots from the reservoir, bone tumor, and cardiac tissue chambers were taken at 12, 24, 48 and 72 hours and measured for fluorescent signal using a spectrophotometer (Biotek).
Measurements of FITC concentrations were used to estimate the spread of linsitinib within the platform via diffusive circulating transport. Four independent platforms were filled with 8 mL of 1:1 mixed media each, after which 10 µM of FITC was injected into the reservoir. The platforms were connected to the peristaltic pumps run at 100 rpm to generate physiologically relevant fluid flow rate and shear stress. Aliquots were taken from the reservoir, bone and cardiac chambers at 0, 2, 4, 6, and 12 hours post injection, and assayed for fluorescence signal on a spectrophotometer (Biotek).

COc1cccc2c1C(=O)c1c(O)c3c(c(O)c1C2=O)C[C@@](O)(C(=O)CO)C[C@@H]3O[C@H]1C[C@H](N)[C@H](O)[C@H](C)O1 [doxorubicin]
cell viability [1]: significantly decreased | glucose consumption [1]: significantly decreased | mitochondrial activity [1]: significantly decreased | diffusional permeability of skin (engineered skin tissues): increased | electrical resistance of skin (engineered skin tissues): decreased | miR-1273a fold change (FC) (miRNAs in heart tissues): −30.6 | beat frequency [2]: initially increased, and then decreased following prolonged exposure

CNC[C@H](O)c1ccc(O)c(O)c1 [epinephrine]
beat rate of cardiac muscle (cardiac muscle): increased the beat rate in a time-dependent manner

thrombin
barrier permeability in response to thrombin (endothelial barrier): physiologic increase in barrier permeability

Fluorescein isothiocyanate [FITC]
absorption by the platform ([3]; 10 μM circulated for 72 hours, compared to multi-well plates): without any measurable absorption | time to equilibrium across both models ([3]; 10 μM injected into reservoir): approximately 6 hours | time to uniform concentration in all areas of the platform ([3]; 10 μM injected into reservoir): ≤ 12 h

CN(CCOc1ccc(NS(C)(=O)=O)cc1)CCc1ccc(NS(C)(=O)=O)cc1 [dofetilide]
beat rate of cardiac muscle (cardiac muscle): decreased

Source: patent US20250092345A1, “INTER ORGAN PLATFORM FOR MICROPHYSIOLOGICAL SYSTEM ON A CHIP” (THE TRUSTEES OF COLUMBIA UNIVERSITY IN THE CITY OF NEW YORK, priority 2020, published 2025)
